Values joined by “and” are separate entries in the source; they are usually repeats but may differ in a detail not shown here. Identical values can stand only once.
Tests used:
human MAO B = biological target: T1, human MAO B (Homo sapiens, UniProt P27338); experiment: Inhibition of purified recombinant human MAO B; type: biochemical; settings: versus safinamide (ref 12)
T1 sequence (P27338 1-520): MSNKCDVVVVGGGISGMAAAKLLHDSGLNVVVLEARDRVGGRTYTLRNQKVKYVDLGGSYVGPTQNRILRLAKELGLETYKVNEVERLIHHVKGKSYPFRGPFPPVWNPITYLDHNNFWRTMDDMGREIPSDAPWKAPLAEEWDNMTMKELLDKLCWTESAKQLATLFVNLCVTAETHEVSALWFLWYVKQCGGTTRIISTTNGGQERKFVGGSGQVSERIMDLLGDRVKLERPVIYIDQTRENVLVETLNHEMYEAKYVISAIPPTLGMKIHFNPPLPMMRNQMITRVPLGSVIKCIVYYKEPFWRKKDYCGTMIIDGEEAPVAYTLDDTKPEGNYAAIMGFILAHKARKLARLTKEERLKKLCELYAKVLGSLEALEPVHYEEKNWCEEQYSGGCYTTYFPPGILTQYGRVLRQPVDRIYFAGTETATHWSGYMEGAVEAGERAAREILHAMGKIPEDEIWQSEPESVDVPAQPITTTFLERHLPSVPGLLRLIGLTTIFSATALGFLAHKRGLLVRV

[1] = biological target: rat monoamine oxidase (MAO) B; settings: weak inhibitor; cited from earlier work
mouse MAO B = settings: membrane-bound mouse MAO B; cited from earlier work
[2] = system: toxic effect of 1-methyl-4-phenyl-tetrahydropyridine (MPTP); settings: mice; cited from earlier work
[3] = humans, daily dosage of 25 mg; cited from earlier work
[4] = cited from earlier work
[5] = storage in solution; oxidative or hydrolytic degradation; cited from earlier work

SMILES: NS(=O)(=O)Cc1noc2ccccc12 [Zonisamide, 1,2-benzisoxazole-3-methanesulfonamide]
- weaker Ki value with human MAO B compared to safinamide (human MAO B): ~ 6 fold
- Ki [1]: 660 µM
- IC50 (mouse MAO B): 25 µM
- effect on MPTP toxicity [2]: attenuates the toxic effect
- plasma (serum) concentration [3]: ~ 0.6 μM and 0.6 μM
- brain tissue versus plasma concentrations [4]: higher in brain tissues
- stability of aged solutions [5]: lose inhibition potency on storage in solution

Source: PMC3071873 (Journal of medicinal chemistry, 2010)
